Laboratory results from patent US20060094676A1, “Compositions and methods for treating cancer using compositions comprising an inhibitor of endothelin receptor activity” (priority 2004, published 2006).
Non-standard residues stand in square brackets, D forms with d. Residues, ends and D or L forms follow the SMILES beside them.

System: VEGF
Assay: Real-time RT-PCR of VEGF transcripts
Type: cell-based, human
Settings: BQ123 in combination with BQ788; melanoma cell lines of the study; data not shown
Procedure: Equal amounts of RNA from cells that were treated with BQ788 for 3 days were subjected to real-time RT-PCR analysis for the detection VEGF (A), HIF-1α (B) and Gravin (C) transcripts. Differences in expression levels are shown as x fold change and are statistically significant (p<0.05) unless a column in marked as non significant (N.S.). Sections of two representative tumors derived from a human melanoma cell line grown in nude mice and injected either with vehicle (D) or BQ788 (E) were stained with anti CD-31 to highlight blood vessels (brown staining, Lahav et al, 1999).
RNA was prepared from the different cell lines in different culture conditions using SV total RNA isolation kit (Promega) according to the manufacturer's protocol. For each sample RNA concentration was determined using the total RNA nano procedure of an Agilent bioanalyzer. A stock of SK-MEL-28 RNA aliquots was prepared containing 10, 20, 50, 100, 200, 500 and 1000 ng/12 μl for use as a standard curve and kept in −80° C. For the experimental unknown samples, a stock of 100 ng/12 μl RNA aliquots from each cell line and condition was prepared and stored at −80° C. For each real-time experiment one series of standard curve and unknown experimental series of aliquots was put on ice for use. Complementary DNA was prepared by adding to each tube 0.5 μl of random hexamers (Promega) and 1 μl of 10 mM dNTP mix (Promega) and incubating at 65° C. for 5 min. 4 μl of 5× M-MLV buffer (Promega), 1 μl of the RNase inhibitor RNasin (Promega) and 1 μl of M-MLV RT RNase H (Promega) were then added and the solution was incubated at 42° C. for 50 min followed by 15 min at 70° C. For real time reactions 15 μl of each cDNA sample were transferred to 3 wells in a 386 well plate. To each well we added 10 μl of TaqMan universal PCR master mix (Applied Biosystems), 1 μl of primers+probe mix (Assays-on-Demand from Applied Biosystems: EDNRB Hs00240747, BCL-2A1 Hs00187845, PARP-3 Hs00154151, VEGF Hs00173626, HIF-1α Hs00153153 and Gravin Hs00374507) and 4 μl of nuclease free water (Promega). Wells containing water instead of cDNA served as negative controls. The samples were subjected to 40 cycles of 15 sec at 95° C. and 1 min at 60° C. A standard curve of Ct versus RNA quantity was established and accordingly the Ct in the unknown samples was correlated to quantity of transcript.
Real-time PCR analysis confirmed that VEGF expression levels increased 18-fold in BQ788 treated LN-met cells and 65-fold in SK-MEL-28 cells, compared to only 2-fold in primary melanoma, and no change in the Cut-met line (FIG. 5). The changes in VEGF expression levels can be explained, at least in part, by changes in the expression levels of its known regulator hypoxia inducible factor-1 oc (HIF-1α) (Maxwell, et al., Oxygen sensors and angiogenesis, Semin. Cell Dev. Biol., 13:29-37 (2002)). […]

CC(C)C[C@@H]1NC(=O)[C@@H](C(C)C)NC(=O)[C@@H]2CCCN2C(=O)[C@@H](CC(=O)O)NC(=O)[C@@H](Cc2c[nH]c3ccccc23)NC1=O [BQ123] (cyclo(L[dW][dD]P[dV]))
VEGF RNA levels compared to BQ788 alone: did not result in changes
